Test results as given in patent publication US20240384268A1, “Oligonucleotides” (Hudson Institute of Medical Research, priority 2021, published 2024).

Molecular target: T1, human TLR9 (Homo sapiens, UniProt Q9NR96)
T1 construct: HA; host or cells: 293XL-hTLR9-HA (HEK293)
T1 sequence (Q9NR96 26-1032): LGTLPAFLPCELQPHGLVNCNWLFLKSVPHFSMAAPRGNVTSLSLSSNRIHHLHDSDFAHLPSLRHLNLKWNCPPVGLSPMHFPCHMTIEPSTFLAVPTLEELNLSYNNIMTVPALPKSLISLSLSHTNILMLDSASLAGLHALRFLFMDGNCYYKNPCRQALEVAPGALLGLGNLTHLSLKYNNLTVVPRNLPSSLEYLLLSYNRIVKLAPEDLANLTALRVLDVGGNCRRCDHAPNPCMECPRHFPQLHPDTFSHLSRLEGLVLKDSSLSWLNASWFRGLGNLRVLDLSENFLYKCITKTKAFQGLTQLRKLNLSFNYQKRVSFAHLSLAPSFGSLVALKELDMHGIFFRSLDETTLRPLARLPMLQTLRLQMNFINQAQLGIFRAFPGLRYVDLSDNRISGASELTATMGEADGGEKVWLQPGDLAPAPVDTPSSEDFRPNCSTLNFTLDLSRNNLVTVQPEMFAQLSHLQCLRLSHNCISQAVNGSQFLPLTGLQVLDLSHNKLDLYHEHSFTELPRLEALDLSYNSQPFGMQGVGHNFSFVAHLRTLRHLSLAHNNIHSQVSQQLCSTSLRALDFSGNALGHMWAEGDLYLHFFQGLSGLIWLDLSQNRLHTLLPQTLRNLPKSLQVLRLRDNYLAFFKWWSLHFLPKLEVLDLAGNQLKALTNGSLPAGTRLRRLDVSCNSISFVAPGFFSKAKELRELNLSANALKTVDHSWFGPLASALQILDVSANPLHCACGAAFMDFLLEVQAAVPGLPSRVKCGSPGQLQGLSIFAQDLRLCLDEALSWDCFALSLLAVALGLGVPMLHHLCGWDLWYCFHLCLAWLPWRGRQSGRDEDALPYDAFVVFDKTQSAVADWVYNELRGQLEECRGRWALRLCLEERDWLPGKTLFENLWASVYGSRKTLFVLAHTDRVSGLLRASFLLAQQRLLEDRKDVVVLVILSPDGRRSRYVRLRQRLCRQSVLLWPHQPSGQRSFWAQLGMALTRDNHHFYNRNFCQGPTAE
Assay: HEK-TLR9 NF-κB-luciferase reporter, ODN2006 stimulation
Type: cell-based
Details: averaged NF-κB-Luciferase relative to ODN2006 condition; for TLR9 100 nM: MOE-modified ASO at 100 nM; for TLR9 500 nM: MOE-modified ASO at 500 nM

AACACTTCGTGGGGTCCTTT (antisense; 2'-MOE modified, pattern not given here) [HPRT-664 MOE]
TLR9 100 nM: 0.426 | TLR9 500 nM: 0.402

AATCCGCCCAAAGGGAACTG (antisense; 2'-MOE modified, pattern not given here) [HPRT-1027 MOE]
TLR9 100 nM: 0.591 | TLR9 500 nM: 0.591

ACAACCCCTTTCACCATCCC (antisense; 2'-MOE modified, pattern not given here) [MB21D1-689 MOE]
TLR9 100 nM: 0.785 | TLR9 500 nM: 0.499

ACAGTGTTGAGATACTCGGG (antisense; 2'-MOE modified, pattern not given here) [EGFR-3652 MOE]
TLR9 100 nM: 0.436 | TLR9 500 nM: 0.194

ACCCACTTGGCAGACCATCA (antisense; 2'-MOE modified, pattern not given here) [CTNN2B-1575 MOE]
TLR9 100 nM: 0.725 | TLR9 500 nM: 0.556

ACTGACTGTCTTGAGGGTTC (antisense; 2'-MOE modified, pattern not given here) [MB21D1-1483 MOE]
TLR9 100 nM: 0.424 | TLR9 500 nM: 0.291

AGATCTGGCAGCCCATCAAC (antisense; 2'-MOE modified, pattern not given here) [CTNN2B-2516 MOE]
TLR9 100 nM: 0.607 | TLR9 500 nM: 0.268

AGGTCTTGGCTTCGTGGAGC (antisense; 2'-MOE modified, pattern not given here) [MB21D1-522 MOE]
TLR9 100 nM: 0.568 | TLR9 500 nM: 0.280

ATCCAACACTTCGTGGGGTC (antisense; 2'-MOE modified, pattern not given here) [HPRT-668 MOE]
TLR9 100 nM: 0.287 | TLR9 500 nM: 0.618

ATGTCCCCTGTTGACTGGTC (antisense; 2'-MOE modified, pattern not given here) [HPRT-489 MOE]
TLR9 100 nM: 0.968 | TLR9 500 nM: 0.953

ATGTCCCGCCACTGGATGCT (antisense; 2'-MOE modified, pattern not given here) [EGFR-727 MOE]
TLR9 100 nM: 0.801 | TLR9 500 nM: 0.423

ATGTGATGGCCTCCCATCTC (antisense; 2'-MOE modified, pattern not given here) [HPRT-333 MOE]
TLR9 100 nM: 0.900 | TLR9 500 nM: 0.918

CAACACTTCGTGGGGTCCTT (antisense; 2'-MOE modified, pattern not given here) [HPRT-665 MOE]
TLR9 100 nM: 0.858 | TLR9 500 nM: 0.619

CAAGGCCCTTCGCACTTCTT (antisense; 2'-MOE modified, pattern not given here) [EGFR-1225 MOE]
TLR9 100 nM: 0.624 | TLR9 500 nM: 0.712

CAATGTGATGGCCTCCCATC (antisense; 2'-MOE modified, pattern not given here) [HPRT-335 MOE]
TLR9 100 nM: 0.614 | TLR9 500 nM: 0.412

CACCCACTTGGCAGACCATC (antisense; 2'-MOE modified, pattern not given here) [CTNN2B-1576 MOE]
TLR9 100 nM: 0.665 | TLR9 500 nM: 0.677

CAGATAGCACCTTCAGCACT (antisense; 2'-MOE modified, pattern not given here) [CTNN2B-1294 MOE]
TLR9 100 nM: 0.583 | TLR9 500 nM: 0.484

CCAACACTTCGTGGGGTCCT (antisense; 2'-MOE modified, pattern not given here) [HPRT-666 MOE]
TLR9 100 nM: 0.612 | TLR9 500 nM: 0.600

CGTGTCTGGAAGCTTCCTTT (antisense; 2'-MOE modified, pattern not given here) [CTNN2B-808 MOE]
TLR9 100 nM: 0.568 | TLR9 500 nM: 0.259

CTCTTGAAGCATCGTATCAC (antisense; 2'-MOE modified, pattern not given here) [CTNN2B-3648 MOE]
TLR9 100 nM: 0.721 | TLR9 500 nM: 0.472

CTGTGATCTTGACATGCTGC (antisense; 2'-MOE modified, pattern not given here) [EGFR-2790 MOE]
TLR9 100 nM: 0.506 | TLR9 500 nM: 0.298

CTTACTTTCCGAGGTGTCCA (antisense; 2'-MOE modified, pattern not given here) [CAMSAP1-1739 MOE]
TLR9 100 nM: 0.647 | TLR9 500 nM: 0.531

GAACCACGTCTGCTCTAACA (antisense; 2'-MOE modified, pattern not given here) [CAMSAP1-1635 MOE]
TLR9 100 nM: 0.588 | TLR9 500 nM: 0.466

GAGGTCTTGGCTTCGTGGAG (antisense; 2'-MOE modified, pattern not given here) [MB21D1-523 MOE]
TLR9 100 nM: 0.888 | TLR9 500 nM: 0.650

GAGTCTCTGGAGCTTCCTCT (antisense; 2'-MOE modified, pattern not given here) [CAMSAP1-2456 MOE]
TLR9 100 nM: 0.594 | TLR9 500 nM: 0.127

GATGCTCCTCGGTCTCCCTT (antisense; 2'-MOE modified, pattern not given here) [CAMSAP1-1850 MOE]
TLR9 100 nM: 0.792 | TLR9 500 nM: 0.196

GATGGCCTCCCATCTCCTTC (antisense; 2'-MOE modified, pattern not given here) [HPRT-329 MOE]
TLR9 100 nM: 0.662 | TLR9 500 nM: 1.268

GCCGCTTTTCTGTCTGGTTC (antisense; 2'-MOE modified, pattern not given here) [CTNN2B-311 MOE]
TLR9 100 nM: 0.684 | TLR9 500 nM: 1.018

GCGACTATACGCGCAATATG (antisense; 2'-MOE modified, pattern not given here) [NC5 2′MOE]
TLR9 100 nM: 0.395 | TLR9 500 nM: 0.035

GCGGAGGTCTTGGCTTCGTG (antisense; 2'-MOE modified, pattern not given here) [MB21D1-526 MOE]
TLR9 100 nM: 0.682 | TLR9 500 nM: 0.246

GCGTATTATAGCCGATTAAC (antisense; 2'-MOE modified, pattern not given here) [NC1 2′MOE]
TLR9 100 nM: 0.460 | TLR9 500 nM: 0.064

GCGTGTCTGGAAGCTTCCTT (antisense; 2'-MOE modified, pattern not given here) [CTNN2B-809 MOE]
TLR9 100 nM: 0.263 | TLR9 500 nM: 0.229

GCTTCAGGCGCTGCCTTGCC (antisense; 2'-MOE modified, pattern not given here) [CAMSAP1-2709 MOE]
TLR9 100 nM: 0.833 | TLR9 500 nM: 0.824

GGAGATTTCAGAGCAGCTTC (antisense; 2'-MOE modified, pattern not given here) [EGFR-4885 MOE]
TLR9 100 nM: 0.541 | TLR9 500 nM: 0.381

GGAGCTTCGAGGCCCCAGGC (MOE modified, pattern not given here) [MB21D1-616 MOE]
TLR9 100 nM: 0.588 | TLR9 500 nM: 0.168

GGAGGTCTTGGCTTCGTGGA (antisense; 2'-MOE modified, pattern not given here) [MB21D1-524 MOE]
TLR9 100 nM: 0.466 | TLR9 500 nM: 0.342

GGCATCCACCACGTCGTCCA (antisense; 2'-MOE modified, pattern not given here) [EGFR-3266 MOE]
TLR9 100 nM: 0.742 | TLR9 500 nM: 0.481

GGGAAAGGTTATGCAAGGTC (antisense; 2'-MOE modified, pattern not given here) [CTNN2B-916 MOE]
TLR9 100 nM: 0.521 | TLR9 500 nM: 0.505

GGTCCATACCCAAGGCATCC (antisense; 2'-MOE modified, pattern not given here) [CTNN2B-2446 MOE]
TLR9 100 nM: 0.687 | TLR9 500 nM: 0.453

GGTGGTCCACAACCCCTTTC (antisense; 2'-MOE modified, pattern not given here) [MB21D1-697 MOE]
TLR9 100 nM: 0.456 | TLR9 500 nM: 0.071

GGTGGTGGCCACCCATCTCA (antisense; 2'-MOE modified, pattern not given here) [CTNN2B-2479 MOE]
TLR9 100 nM: 0.761 | TLR9 500 nM: 0.317

GGTGTCCTTGCACGTGGCTT (antisense; 2'-MOE modified, pattern not given here) [EGFR-1016 MOE]
TLR9 100 nM: 1.064 | TLR9 500 nM: 0.714

GTCCACATCCTGTGGCTCGT (antisense; 2'-MOE modified, pattern not given here) [CAMSAP1-2906 MOE]
TLR9 100 nM: 0.559 | TLR9 500 nM: 0.254
